In ChEMBL document CHEMBL1132363, “Asymmetric synthesis and antiviral activities of L-carbocyclic 2', 3'-didehydro-2',3'-dideoxy and 2',3'-dideoxy nucleosides” (J Med Chem, 1999):
pEC50, pIC50: −log10 of the molar value.

Key:
[1] = The compound was tested in vitro for the anti-HIV activity against peripheral blood mononuclear (PBM)cells; type: functional; details: Homo sapiens
[2] = The compound was tested for the cytotoxicity against peripheral blood mononuclear (PBM)cells; type: functional, cell-based; details: Homo sapiens
Homo sapiens [3] = species: Homo sapiens; test: The compound was tested in vitro for the anti-HBV activity against 2.2.15 cells; type: functional, cell-based; details: HepG2 2.2.15
Vero = test: The compound was tested for the cytotoxicity against Vero cells; type: functional, cell-based; details: Chlorocebus sabaeus
CCRF-CEM = test: The compound was tested for the cytotoxicity against CEM cells; type: functional, cell-based; details: Homo sapiens
[4] = The compound was tested in vitro for the anti-HIV activity in peripheral blood mononuclear (PBM) cells; type: functional; details: Homo sapiens
Homo sapiens [5] = species: Homo sapiens; test: The compound was tested in vitro for the anti-HBV activity in 2.2.15 cells; type: functional, cell-based; details: HepG2 2.2.15
[6] = The compound was tested for the cytotoxicity against peripheral blood mononuclear (PBM) cells; type: functional, cell-based; details: Homo sapiens

Compound `Nc1ccn([C@@H]2C=C[C@H](CO)C2)c(=O)n1` has a pEC50 [1] of 4.41, an EC90 [1] of 65.9 µM and a pIC50 [2] of less than 4.00. For the same compound, the pEC50 (Homo sapiens [3]) was less than 5.00, the pIC50 (Vero) was less than 4.00 and the pIC50 (CCRF-CEM) was less than 4.00.

Compound `OC[C@H]1CC[C@@H](n2cnc3c(O)ncnc32)C1` has a pEC50 [4] of less than 4.00, a pEC50 (Homo sapiens [5]) of less than 5.00 and a pIC50 [2] of less than 4.00. The pIC50 (Vero) was less than 4.00 and the pIC50 (CCRF-CEM) was less than 4.00.

Work on `Cc1cn(C2CCC(CO)C2)c(=O)[nH]c1=O` (stereo not drawn) yielded a pEC50 [1] of less than 4.00, a pIC50 [2] of less than 4.00 and a pEC50 (Homo sapiens [3]) of less than 5.00. It also gave a pIC50 (Vero) of 3.77 and a pIC50 (CCRF-CEM) of less than 4.00.

With `Nc1ncnc2c1ncn2C1CCC(CO)C1` (stereo not drawn) the pEC50 [1] was 4.57, the pIC50 [2] was less than 4.00 and the pEC50 (Homo sapiens [3]) was less than 4.30. For the same compound, the pIC50 (Vero) was less than 4.00 and the pIC50 (CCRF-CEM) was less than 4.00.

In the case of `Nc1nc(O)c2ncn([C@@H]3C=C[C@H](CO)C3)c2n1`, the pEC50 [1] was less than 3.70 and the pEC50 (Homo sapiens [3]) was less than 3.70.

Compound `O=c1ccn([C@@H]2C=C[C@H](CO)C2)c(=O)[nH]1` has a pEC50 [1] of less than 4.00, a pIC50 [2] of less than 4.00 and a pEC50 (Homo sapiens [3]) of less than 5.00. The pIC50 (Vero) was less than 4.00 and the pIC50 (CCRF-CEM) was less than 4.00.

`COC1O[C@H]2[C@H](COC(C)(C)C)C[C@H](n3cnc4c(Cl)ncnc43)[C@H]2O1` (stereo partly drawn) showed a pEC50 [1] of less than 4.00, a pIC50 [2] of less than 4.00 and a pEC50 (Homo sapiens [3]) of less than 5.00. It also gave a pIC50 (Vero) of less than 4.00 and a pIC50 (CCRF-CEM) of less than 4.00.

For `Nc1ncnc2c1ncn2[C@@H]1C=C[C@H](CO)C1`, the pEC50 [1] was 5.62, the pIC50 [2] was less than 4.00 and the pEC50 (Homo sapiens [3]) was 6.05. It also gave a pIC50 (Vero) of less than 4.00 and a pIC50 (CCRF-CEM) of less than 4.00.

`Cc1cn([C@@H]2C=C[C@H](CO)C2)c(=O)[nH]c1=O` showed a pEC50 [1] of less than 4.00, a pIC50 [2] of 4.18 and a pEC50 (Homo sapiens [3]) of less than 5.00. For the same compound, the pIC50 (Vero) was 4.31 and the pIC50 (CCRF-CEM) was less than 4.00.

Compound `OC[C@H]1C=C[C@@H](n2cnc3c(S)ncnc32)C1` has a pEC50 [4] of less than 4.00, a pEC50 (Homo sapiens [5]) of less than 5.00 and a pIC50 (Vero) of less than 4.00. For the same compound, the pIC50 (CCRF-CEM) was less than 4.00 and the pIC50 [6] was less than 4.00.

`OC[C@H]1C=C[C@@H](n2cnc3c(O)ncnc32)C1` showed a pEC50 [1] of less than 4.00, a pIC50 [2] of less than 4.00 and a pEC50 (Homo sapiens [3]) of less than 5.00. It also gave a pIC50 (Vero) of less than 4.00 and a pIC50 (CCRF-CEM) of less than 4.00.

`O=c1ccn(C2CCC(CO)C2)c(=O)[nH]1` (stereo not drawn) gave a pEC50 [1] of less than 4.00, a pIC50 [2] of less than 4.00 and a pEC50 (Homo sapiens [3]) of less than 5.00. The pIC50 (Vero) was less than 4.00 and the pIC50 (CCRF-CEM) was less than 4.00.
